Test results from patent publication US9890195B2, “MK2 inhibitor compositions and methods to enhance neurite outgrowth, neuroprotection, and nerve regeneration” (Purdue Research Foundation, priority 2009, dated 2018).
Where no end group is shown, it is not given here.

System: mixed cortical cultures comprising neurons, astrocytes, and microglia
Experiment: Immunocytochemistry/cell imaging of mixed cortical cultures treated with MK2i and TNF-α
Format: cell-based, Sprague-Dawley rat
Settings: for morphological effects on neurons, astrocytes, microglia (FIG. 3): no TNF-α
Description: The effect of MK2i on neuronal cell death and microglical activation was investigated by treating 1-week old mixed cortical cultures comprising neurons, astrocytes, and microglia with the MK2i peptide […] [SEQ ID NO: 33]. Primary Cortical Cell Culture
Embryonic rat cortical tissue was obtained immediately following removal of embryos from the rat's abdomen. E17 Sprague-Dawley rat cortical tissue was placed in a 50 ml conical tube containing 5 ml of Solution 1 (NaCl 7.24 g/L; KCl 0.4 g/L; NaH2PO4 0.14 g/L; Glucose 2.61 g/L; Hepes 5.96 g/L; MgSO4 0.295 g/L; Bovine Serum Albumin 3 g/L). Under sterile conditions, 18 μl of trypsin solution (7.5 mg/ml in 0.9% saline) was added and tissue was passed through a 5-ml pipet several times to disassociate tissue. After the conical tube was placed in a 37° C. water bath for 20 minutes, 100 μl of trypsin inhibitor/DNAse solution (2.5 mg/ml trypsin inhibitor, 400 μg/ml DNase in 0.9% saline) was added to the tube and tissue was pipetted several times with a 5-ml pipet. Tissue was centrifuged at 1,000 rpm for 5 minutes at room temperature and supernatant was poured off. Cells were re-suspended in 16 ml of Hibernate E (BrainBits, Springfield, Ill.) and 100 μl of trypsin inhibitor/DNAse solution and pipetted up and down several times. Cells were filtered through a cell strainer and centrifuged at 1,400 rpm for 5 minutes at room temperature. Supernatant was poured off and cells were re-suspended in media. Primary cells were then plated in poly-D-lysine coated 96-well plates at a seeding density of 625,000 cells/cm^2 and incubated for 7-9 days at 37° C. After 7-9 days, cortical cells were treated with 5 ng/ml or 10 ng/ml of TNF-α to activate microglia. Cells then were treated with 0, 0.5, 1, or 3 mM MK2i peptide […] [SEQ ID NO: 33] for 4 hours, 8 hours, and 24 hours. After treatment, media was removed and stored at −20° C.
In preparation for staining mixed cortical cells, cell media was replaced with phosphate-buffered 4% formaldehyde solution for 5 minutes, followed by three washes using HBHS solution (HEPES-buffered Hank's saline containing 10 mg/L sodium azide, pH 7.4). Blocking solution, consisting of 10% normal goat serum in HBHS, then was applied for 30 minutes, followed by three washes with HBHS. Microglia, astrocytes, and neurons were labeled using antibodies against ionized calcium binding adaptor molecule 1 (Iba1, Wako), glial fibrillary acidic protein (GFAP, Millipore), and β-3-tubulin (β3tub, Covance), respectively. Antibodies were applied for 2 hours, at a dilution of 1:400 in HBHS. After two 10 minute washes and one 30 minute wash, secondary antibodies were applied. […]

Q: Which results are given for YARAAARQARAKALARQLGVAA-NH2 [MK2i]?
A: suppression of TNF-α-induced neuronal cell damage (FIG. 4) (5 ng/ml and 10 ng/ml TNF-α, 3 mM MK2i, which also resulted in neuronal cell damage): not maintained; morphological effects on neurons, astrocytes, microglia (FIG. 3) (0.5 mM and 1.0 mM MK2i (below 3 mM)): Minimal morphological effects; astrocyte damage (FIG. 6) (3 mM MK2i): damage to astrocytes; morphological effects on neurons, astrocytes, microglia (FIG. 3) (3 mM MK2i): increased neuronal and astrocytic cell damage, as well as microglial proliferation
